# Values joined by “and” are separate entries in the source; they are usually repeats but may differ in a detail not shown here. Identical values can stand only once.
# Columns and labels:
# [1] = biological target: RIPK2 (Homo sapiens, UniProt O43353); test: RIPK2 degradation in human PBMCs (immunoassay); assay type: cell-based; parameters: endogenous in cells; host or cells: primary human PBMCs from leukodepletion filters (NHSBT); settings: 24 h
# Method: PBMCs were isolated from leukodepletion filter from platelet aphaeresis supplied by National Health System Blood and Transplant—NHSBT Apheresed at NHBST.
# (§1) Before treatment with compound or vehicle, THP1 cells, human and rat PBMCs were counted using Vi-Cell cell counter (Invitrogen) and adjusted to a final cell density of […] using complete growth medium. Cells or whole blood were treated with vehicle (0.1% DMSO) or fixed concentrations of compound up to 1 μM in half log unit increments and incubated for the time period indicated in the figure.
# Where the assessment of cytokines was performed, L18-MDP was added to the cell culture media (1 μg/ml) or to the rat blood samples (100 ng/ml) and samples were incubated for up to 4 h. […] Samples were them spun down at 1000 g and the cell culture supernatant, plasma or serum were collected for cytokines assessment, while cell pellets were used for RIPK2 and/or cIAP1, cIAP2, and XIAP levels analysis via immunoblotting.
# Simple Western immunoassay: Cell lysates were mixed with 5× concentrated master mix (Protein Simple) and denatured at 95 °C on a heat block for 5 min together with the provided ladder (Protein Simple). Antibodies were diluted in the provided buffer as following: anti-RIPK2 (1:10 or 1:50), anti-cIAP1(1:10), anti-cIAP2 (1:10), anti-XIAP (1:10), mouse anti-β-actin (Abcam - 1:1000), rabbit anti-β-actin (Abcam - 1:50) and anti-vinculin (1:100). All reagents (blocking buffer, primary and secondary antibodies, streptavadin, luminol/peroxide, separation matrix, stacking matrix and water) were added to the Protein Simple plate containing the ladder and lysates and the plate was placed in a Protein Simple Western instrument and the Simple Western default size assay protocol was used. […] The area under the peak values obtained for RIPK2, cIAP1, cIAP2 or XIAP were normalized relative to the control protein values.
# In vitro experimental data were analyzed using a 4-parameter logistic equation in GraphPad Prism 5.0.4. to generate an estimate of the half-maximal concentration and maximal degradation, DC50 and Dmax value respectively, for concentration-degradation relationships. Cytokine levels were analyzed in a similar manner to yield IC50 and Imax values. […] Where analysis to a sigmoidal relationship was not possible, the data points are shown as mean ± s.e.m.
# [2] = test system: L18-MDP-stimulated TNFα release; test: L18-MDP-stimulated TNFα release in rat whole blood; assay type: cell-based; settings: inhibition of L18-MDP-stimulated TNFα release
# Method: as §1
# Where the assessment of cytokines was performed, L18-MDP was added to the cell culture media (1 μg/ml) or to the rat blood samples (100 ng/ml) and samples were incubated for up to 4 h. […]
# Cytokine measurement assay: Cytokine levels were measured in rat plasma or rat PBMCs cell culture supernatants using rat V-Plex TNFα, in human plasma or human PBMCs cell culture supernatants with either TNFα tissue culture or 7-plex kit. Rat serum and tissues samples from the in vivo L18-MDP acute inflammation model were analyzed using the rat TNFα, Il-6 and IL-8 U-Plex kits. […] Levels of cytokines spontaneously released from human colon biopsies cell culture supernatants were measured using Human IL-1 beta/IL-1F2 DuoSet ELISA (Bio-techne), Human IL-6 ELISA (Immunotools) and Human TNF-alpha DuoSet ELISA (Bio-techne). […] The MSD plates were analyzed using the MSD sector imager 6000 plate reader and cytokines concentration (pg/ml) was obtained by using the MSD DISCOVERY WORKBENCH software version 4.0.12.1 […]
# [3] = biological target: T1, XIAP (Homo sapiens, UniProt P98170); test: XIAP levels in human PBMCs, 24 h, capillary immunoassay; assay type: cell-based; settings: up to 1uM
# T1 construct: endogenous in cells; host or cells: primary human PBMCs
# T1 sequence (P98170 whole entry): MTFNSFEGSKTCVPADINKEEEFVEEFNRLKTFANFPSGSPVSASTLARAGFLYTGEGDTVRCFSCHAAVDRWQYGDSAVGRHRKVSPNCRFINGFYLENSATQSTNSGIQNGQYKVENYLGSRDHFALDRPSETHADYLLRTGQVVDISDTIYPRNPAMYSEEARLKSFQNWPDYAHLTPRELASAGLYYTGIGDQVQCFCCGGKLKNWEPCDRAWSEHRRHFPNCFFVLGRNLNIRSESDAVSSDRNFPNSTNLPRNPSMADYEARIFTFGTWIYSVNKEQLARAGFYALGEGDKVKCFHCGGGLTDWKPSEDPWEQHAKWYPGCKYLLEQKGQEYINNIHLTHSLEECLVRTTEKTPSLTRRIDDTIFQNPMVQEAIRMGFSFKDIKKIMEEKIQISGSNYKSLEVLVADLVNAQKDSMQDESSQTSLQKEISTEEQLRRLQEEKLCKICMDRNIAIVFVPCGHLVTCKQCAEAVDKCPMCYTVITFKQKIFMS
# Method: (§2) Where the assessment of cytokines was performed, L18-MDP was added to the cell culture media (1 μg/ml) or to the rat blood samples (100 ng/ml) and samples were incubated for up to 4 h. For human blood, 250 ng/ml MDP (Invivogen) was added following compound treatment and the samples were further incubated for 5 h. Samples were them spun down at 1000 g and the cell culture supernatant, plasma or serum were collected for cytokines assessment, while cell pellets were used for RIPK2 and/or cIAP1, cIAP2, and XIAP levels analysis via immunoblotting.
# (§3) Simple Western immunoassay: Cell lysates were mixed with 5× concentrated master mix (Protein Simple) and denatured at 95 °C on a heat block for 5 min together with the provided ladder (Protein Simple). Antibodies were diluted in the provided buffer as following: anti-RIPK2 (1:10 or 1:50), anti-cIAP1(1:10), anti-cIAP2 (1:10), anti-XIAP (1:10), mouse anti-β-actin (Abcam - 1:1000), rabbit anti-β-actin (Abcam - 1:50) and anti-vinculin (1:100). […] All samples were analyzed using the associated Compass software 3.1.7. […]
# (§4) Cell viability was assessed by using Cell Titer
# (§5) Kit (Promega) according to the manufacturer’s instructions. Samples were analysed using […]
# [4] = test system: L18-MDP-induced cytokine release; test: In vivo L18-MDP acute inflammation model, serum cytokines (TNFα, IL-6, IL-8); parameters: species or system rat; cytokine level (fig 6a) / cytokine level (fig 6b) / cytokine level (fig 6c): unit not given here; settings: for cytokine level (fig 6a) / cytokine level (fig 6b) / cytokine level (fig 6c): serum, individual rats, beside L18-MDP control;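 on cytokine level (fig 6a): time is length of PROTAC pretreatment before a 2 h L18-MDP challenge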;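 on cytokine level (fig 6b): time is length of PROTAC pretreatment before a 2 h L18-MDP challenge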;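 on cytokine level (fig 6c): time is length of PROTAC pretreatment before a 2 h L18-MDP challenge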
# Method: In vivo L18-MDP administration to rodents results in an acute inflammatory response characterised by the rapid production of inflammatory cytokines. […]. […]. Blood concentrations of 6 and 7 tracked closely and dropped below the LLQ after 24 h.
# . Cytokine levels were determined in serum generated from the terminal blood samples and in tissue lysates as detailed below.
# Cytokine measurement assay: Cytokine levels were measured in rat plasma or rat PBMCs cell culture supernatants using rat V-Plex TNFα, in human plasma or human PBMCs cell culture supernatants with either TNFα tissue culture or 7-plex kit. Rat serum and tissues samples from the in vivo L18-MDP acute inflammation model were analyzed using the rat TNFα, Il-6 and IL-8 U-Plex kits. All kits provided by Meso Scale Discovery (MSD). Levels of cytokines spontaneously released from human colon biopsies cell culture supernatants were measured using Human IL-1 beta/IL-1F2 DuoSet ELISA (Bio-techne), Human IL-6 ELISA (Immunotools) and Human TNF-alpha DuoSet ELISA (Bio-techne). All samples were processed accordingly to the manufacturer’s instructions. The MSD plates were analyzed using the MSD sector imager 6000 plate reader and cytokines concentration (pg/ml) was obtained by using the MSD DISCOVERY WORKBENCH software version 4.0.12.1
# For in vivo studies, RIPK2:tubulin ratios and cytokine levels from each individual experiment were analysed either using a One-way ANOVA with Dunnet’s post-test or a two way ANOVA using GraphPad Prism 5.0.4 to determine statistical significance with 95% confidence levels.
# [5] = biological target: T2, cIAP2 (Homo sapiens, UniProt Q13489); test: cIAP2 levels in human PBMCs, 24 h, capillary immunoassay; assay type: cell-based; settings: up to 1uM
# T2 construct: endogenous in cells; host or cells: primary human PBMCs
# T2 sequence (Q13489 whole entry): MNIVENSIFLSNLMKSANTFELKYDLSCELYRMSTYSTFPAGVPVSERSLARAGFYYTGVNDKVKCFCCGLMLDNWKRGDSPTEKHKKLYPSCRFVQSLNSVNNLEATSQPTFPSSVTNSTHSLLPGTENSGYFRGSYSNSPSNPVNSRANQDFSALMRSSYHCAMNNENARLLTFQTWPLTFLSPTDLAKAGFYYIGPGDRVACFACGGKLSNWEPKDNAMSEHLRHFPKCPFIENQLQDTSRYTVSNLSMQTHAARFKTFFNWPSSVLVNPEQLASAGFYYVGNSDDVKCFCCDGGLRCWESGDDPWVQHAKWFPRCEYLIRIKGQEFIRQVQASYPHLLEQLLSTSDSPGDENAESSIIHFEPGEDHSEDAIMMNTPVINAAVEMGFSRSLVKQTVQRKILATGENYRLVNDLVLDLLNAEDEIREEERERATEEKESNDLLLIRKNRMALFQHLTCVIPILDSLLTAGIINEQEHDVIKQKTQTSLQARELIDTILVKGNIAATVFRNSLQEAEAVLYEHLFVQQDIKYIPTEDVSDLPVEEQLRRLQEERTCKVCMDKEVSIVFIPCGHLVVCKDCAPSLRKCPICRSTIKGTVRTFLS
# Method: as §2, §3, §4, §5
# Sequence of RIPK2 (O43353 whole entry): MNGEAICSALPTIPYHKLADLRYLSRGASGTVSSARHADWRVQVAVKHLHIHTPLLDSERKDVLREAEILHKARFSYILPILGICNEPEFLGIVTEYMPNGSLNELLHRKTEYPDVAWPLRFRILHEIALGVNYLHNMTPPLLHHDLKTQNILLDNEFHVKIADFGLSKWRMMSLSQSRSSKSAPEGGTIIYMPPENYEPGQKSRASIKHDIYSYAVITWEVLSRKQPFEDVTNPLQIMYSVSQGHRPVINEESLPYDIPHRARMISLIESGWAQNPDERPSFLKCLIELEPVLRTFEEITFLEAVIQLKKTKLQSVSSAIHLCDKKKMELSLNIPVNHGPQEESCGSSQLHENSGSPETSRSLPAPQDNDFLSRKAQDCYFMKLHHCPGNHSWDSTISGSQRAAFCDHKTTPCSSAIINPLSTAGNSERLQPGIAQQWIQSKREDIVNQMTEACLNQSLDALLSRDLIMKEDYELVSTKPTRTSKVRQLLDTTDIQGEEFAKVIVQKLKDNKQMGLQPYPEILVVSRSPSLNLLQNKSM
smiles,measurement,setting,value
CN[C@@H](C)C(=O)N[C@H](C(=O)N1CCC[C@H]1c1nc(C(=O)c2ccc(F)cc2)cs1)C1CCN(C(=O)c2cnc(N3CCN(CCOc4cc5ncnc(Nc6n[nH]c(C)c6C)c5cc4S(=O)(=O)C(C)(C)C)CC3)nc2)CC1 [PROTAC 4],"hPBMC pDC50 ± SEM, 24 h (n = 3)",[1]; RIPK2 degradation,7.9 ± 0.2
same,"hPBMC Dmax ± SEM, 24 h (n = 3)",[1]; maximal RIPK2 degradation,69.2 ± 11.5%
same,rWB MDP pIC50 ± SEM (n),[2],7.7 ± 0.16 (4)
CN[C@@H](C)C(=O)N[C@H](C(=O)N1C[C@@H](NC(=O)c2cnc(N3CCN(CCCOc4cc5ncnc(Nc6n[nH]c(C)c6C)c5cc4S(=O)(=O)C(C)(C)C)CC3)cn2)C[C@H]1C(=O)Nc1c(F)cccc1F)C(C)(C)C [PROTAC 6],"change in XIAP protein levels, in words",[3],no change in protein levels
same,inhibition of serum cytokines,"[4]; rat, 0.3 mg/kg SC, intravenous L18-MDP challenge, first three days",> 75%
same,cytokine level (fig 6a),[4]; time 6 h,18.49 (2×) and 16.66 and 19.87 and 20.63
same,cytokine level (fig 6b),[4]; time 6 h,1.67 and 2.89 and 2.19 and 1.98 and 1.58
same,cytokine level (fig 6c),[4]; time 6 h,4 (3×) and 5 and 3
same,cytokine level (fig 6a),[4]; time 24 h,17.80 and 19.20 and 17.38 and 15.28 and 17.94
same,cytokine level (fig 6b),[4]; time 24 h,3.64 and 5.77 and 5.56 and 2.08 and 8.31
same,cytokine level (fig 6c),[4]; time 24 h,1 (3×) and 2 (2×)
same,cytokine level (fig 6a),[4]; time 72 h,19.88 and 25.30 and 22.33 and 26.08 and 26.21
same,cytokine level (fig 6b),[4]; time 72 h,18.18 and 42.78 and 20.80 and 21.32 and 12.42
same,cytokine level (fig 6c),[4]; time 72 h,19 and 9 and 13 and 7 and 24
same,cytokine level (fig 6a),[4]; time 240 h,63.85 and 82.37 and 43.93 and 24.16 and 36.40
same,cytokine level (fig 6b),[4]; time 240 h,64.23 and 50.00 and 38.00 and 38.38 and 36.37
same,cytokine level (fig 6c),[4]; time 240 h,28 and 68 and 85 and 81 and 23
same,cytokine level (fig 6a),[4]; time 408 h,65.92 and 78.49 and 54.66 and 71.18 and 46.33
same,cytokine level (fig 6b),[4]; time 408 h,61.45 and 97.28 and 63.67 and 57.26 and 26.18
same,cytokine level (fig 6c),[4]; time 408 h,30 and 38 and 69 and 58 and 40
same,"change in cIAP2 protein levels, in words",[5],no change in protein levels

# — paper PMC7083851, “Extended pharmacodynamic responses observed upon PROTAC-mediated degradation of RIPK2” (Communications Biology, 2020)
